# Source: US20250171437A1 (Agios Pharmaceuticals,Inc., priority 2022, published 2025)
# Molecular target: T1, human PAH with the R408W mutation (A375 R408W cells) (Homo sapiens, UniProt P00439, R408W)
# T1 construct: expressed in transfected cells
# T1 sequence (P00439 1-452 R408W): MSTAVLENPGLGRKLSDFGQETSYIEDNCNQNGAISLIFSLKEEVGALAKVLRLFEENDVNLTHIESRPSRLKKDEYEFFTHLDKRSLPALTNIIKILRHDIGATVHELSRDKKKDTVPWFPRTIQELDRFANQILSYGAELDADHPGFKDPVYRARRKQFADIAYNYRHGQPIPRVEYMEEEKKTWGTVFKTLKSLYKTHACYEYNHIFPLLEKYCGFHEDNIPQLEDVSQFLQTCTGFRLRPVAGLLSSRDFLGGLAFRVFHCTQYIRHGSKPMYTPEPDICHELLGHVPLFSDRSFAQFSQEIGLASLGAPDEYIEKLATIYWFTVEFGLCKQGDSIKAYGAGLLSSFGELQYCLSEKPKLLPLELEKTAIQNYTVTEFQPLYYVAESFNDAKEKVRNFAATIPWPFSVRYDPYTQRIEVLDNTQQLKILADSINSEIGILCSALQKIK
# Test: Cell Based Phenylalanine Flux Assay
# Conditions: A375 R408W cells; 24 hrs with compound, then 20 μM sepiapterin and 800 μM 13C9,15N-Phenylalanine for 4 hours; 13C-Tyrosine by LC-MS; average where tested multiple times
# Procedure, shortened: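 AC50 is derived from LC-MS of 13C-tyrosine in the media after a 4 h pulse of 800 μM 13C9,15N-phenylalanine plus 20 μM sepiapterin. The A375 R408W PAH cells had received duplicate 10-point, 2-fold compound dilutions (0.5% DMSO) for 24 h beforehand.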
row,AC50 [nM],Structure (SMILES)
1,≤ 500,"Cc1cc(F)cc2nc([C@@H]3c4nc[nH]c4CCN3C(=O)c3ocnc3C(F)F)oc12 [Example 657, (S)-(4-(difluoromethyl)oxazol-5-yl)(4-(5-fluoro-7-methylbenzo[d]oxazol-2-yl)-6,7-dihydro-1H-imidazo[4,5-c]pyridin-5(4H)-yl)methanone]"
2,≤ 500,"Cc1cc(F)cc2nc([C@H]3c4nc[nH]c4CCN3C(=O)c3ocnc3C(F)F)oc12 [Example 658, (R)-(4-(difluoromethyl)oxazol-5-yl)(4-(5-fluoro-7-methylbenzo[d]oxazol-2-yl)-6,7-dihydro-1H-imidazo[4,5-c]pyridin-5(4H)-yl)methanone]"
3,≤ 500,"Cc1ccc(C)c2oc([C@@H]3c4nc[nH]c4CCN3C(=O)c3oc(C(C)(C)O)nc3C(F)F)nc12 [Example 659, (S)-(4-(difluoromethyl)-2-(2-hydroxypropan-2-yl)oxazol-5-yl)(4-(4,7-dimethylbenzo[d]oxazol-2-yl)-6,7-dihydro-1H-imidazo[4,5-c]pyridin-5(4H)-yl)methanone]"
4,1000 to 5000,"Cc1ccc(C)c2oc([C@H]3c4nc[nH]c4CCN3C(=O)c3oc(C(C)(C)O)nc3C(F)F)nc12 [Example 660, (R)-(4-(difluoromethyl)-2-(2-hydroxypropan-2-yl)oxazol-5-yl)(4-(4,7-dimethylbenzo[d]oxazol-2-yl)-6,7-dihydro-1H-imidazo[4,5-c]pyridin-5(4H)-yl)methanone]"
5,1000 to 5000,"O=C(c1oc(-c2ncccn2)nc1C(F)F)N1CCc2[nH]cnc2[C@H]1c1nc2cc(F)ccc2o1 [Example 661, (S)-(4-(difluoromethyl)-2-(pyrimidin-2-yl)oxazol-5-yl)(4-(5-fluorobenzo[d]oxazol-2-yl)-6,7-dihydro-1H-imidazo[4,5-c]pyridin-5(4H)-yl)methanone]"
6,1000 to 5000,"O=C(c1oc(-c2ncccn2)nc1C(F)F)N1CCc2[nH]cnc2[C@@H]1c1nc2cc(F)ccc2o1 [Example 662, (R)-(4-(difluoromethyl)-2-(pyrimidin-2-yl)oxazol-5-yl)(4-(5-fluorobenzo[d]oxazol-2-yl)-6,7-dihydro-1H-imidazo[4,5-c]pyridin-5(4H)-yl)methanone]"
7,≤ 500,"COc1cc(F)c2oc([C@@H]3c4nc[nH]c4CCN3C(=O)c3ocnc3C(F)F)nc2c1 [Example 663, (S)-(4-(difluoromethyl)oxazol-5-yl)(4-(7-fluoro-5-methoxybenzo[d]oxazol-2-yl)-6,7-dihydro-1H-imidazo[4,5-c]pyridin-5(4H)-yl)methanone]"
8,≤ 500,"COc1cc(F)c2oc([C@H]3c4nc[nH]c4CCN3C(=O)c3ocnc3C(F)F)nc2c1 [Example 664, (R)-(4-(difluoromethyl)oxazol-5-yl)(4-(7-fluoro-5-methoxybenzo[d]oxazol-2-yl)-6,7-dihydro-1H-imidazo[4,5-c]pyridin-5(4H)-yl)methanone]"

# The remaining lines, values behind:
row,Structure (SMILES),AC50 [nM]
1,"COc1cc(F)c2oc([C@H]3c4nc[nH]c4CCN3C(=O)c3oc(C(C)(C)O)nc3C(F)F)nc2c1 [Example 644, (R)-(4-(difluoromethyl)-2-(2-hydroxypropan-2-yl)oxazol-5-yl)(4-(7-fluoro-5-methoxybenzo[d]oxazol-2-yl)-6,7-dihydro-1H-imidazo[4,5-c]pyridin-5(4H)-yl)methanone]",≤ 500
2,"Cn1cc(-c2nnc(C(=O)N3CCc4[nH]cnc4[C@H]3c3nc4c(F)c(F)ccc4o3)o2)cn1 [Example 645, (S)-(4-(4,5-difluorobenzo[d]oxazol-2-yl)-6,7-dihydro-1H-imidazo[4,5-c]pyridin-5(4H)-yl)(5-(1-methyl-1H-pyrazol-4-yl)-1,3,4-oxadiazol-2-yl)methanone]",1000 to 5000
3,"Cn1cc(-c2nnc(C(=O)N3CCc4[nH]cnc4[C@@H]3c3nc4c(F)c(F)ccc4o3)o2)cn1 [Example 646, (R)-(4-(4,5-difluorobenzo[d]oxazol-2-yl)-6,7-dihydro-1H-imidazo[4,5-c]pyridin-5(4H)-yl)(5-(1-methyl-1H-pyrazol-4-yl)-1,3,4-oxadiazol-2-yl)methanone]",1000 to 5000
4,"O=C(c1oc(N2CCOCC2)nc1C(F)F)N1CCc2[nH]cnc2[C@@H]1c1nc2cccc(F)c2o1 [Example 647, (R)-(4-(difluoromethyl)-2-morpholinooxazol-5-yl)(4-(7-fluorobenzo[d]oxazol-2-yl)-6,7-dihydro-1H-imidazo[4,5-c]pyridin-5(4H)-yl)methanone]",500 to 1000
5,"O=C(c1oc(N2CCOCC2)nc1C(F)F)N1CCc2[nH]cnc2[C@H]1c1nc2cccc(F)c2o1 [Example 648, (S)-(4-(difluoromethyl)-2-morpholinooxazol-5-yl)(4-(7-fluorobenzo[d]oxazol-2-yl)-6,7-dihydro-1H-imidazo[4,5-c]pyridin-5(4H)-yl)methanone]",≤ 500
6,"CC(F)(F)c1ncoc1C(=O)N1CCc2[nH]cnc2[C@H]1c1nc2ccc(F)cc2o1 [Example 649, (S)-(4-(1,1-difluoroethyl)oxazol-5-yl)(4-(6-fluorobenzo[d]oxazol-2-yl)-6,7-dihydro-1H-imidazo[4,5-c]pyridin-5(4H)-yl)methanone]",≤ 500
7,"CC(F)(F)c1ncoc1C(=O)N1CCc2[nH]cnc2[C@@H]1c1nc2ccc(F)cc2o1 [Example 650, (R)-(4-(1,1-difluoroethyl)oxazol-5-yl)(4-(6-fluorobenzo[d]oxazol-2-yl)-6,7-dihydro-1H-imidazo[4,5-c]pyridin-5(4H)-yl)methanone]",500 to 1000
8,"CC(F)(F)c1ncoc1C(=O)N1CCc2[nH]cnc2[C@H]1c1nc2c(F)cccc2o1 [Example 651, (S)-(4-(1,1-difluoroethyl)oxazol-5-yl)(4-(4-fluorobenzo[d]oxazol-2-yl)-6,7-dihydro-1H-imidazo[4,5-c]pyridin-5(4H)-yl)methanone]",≤ 500
9,"CC(F)(F)c1ncoc1C(=O)N1CCc2[nH]cnc2[C@@H]1c1nc2c(F)cccc2o1 [Example 652, (R)-(4-(1,1-difluoroethyl)oxazol-5-yl)(4-(4-fluorobenzo[d]oxazol-2-yl)-6,7-dihydro-1H-imidazo[4,5-c]pyridin-5(4H)-yl)methanone]",1000 to 5000
10,"Cc1ccc2oc([C@@H]3c4nc[nH]c4CCN3C(=O)c3nnc(-c4ncccc4F)o3)nc2c1 [Example 653, (S)-(5-(3-fluoropyridin-2-yl)-1,3,4-oxadiazol-2-yl)(4-(5-methylbenzo[d]oxazol-2-yl)-6,7-dihydro-1H-imidazo[4,5-c]pyridin-5(4H)-yl)methanone]",≤ 500
11,"Cc1ccc2oc([C@H]3c4nc[nH]c4CCN3C(=O)c3nnc(-c4ncccc4F)o3)nc2c1 [Example 654, (R)-(5-(3-fluoropyridin-2-yl)-1,3,4-oxadiazol-2-yl)(4-(5-methylbenzo[d]oxazol-2-yl)-6,7-dihydro-1H-imidazo[4,5-c]pyridin-5(4H)-yl)methanone]",1000 to 5000
12,"Cc1cc(F)cc2nc([C@@H]3c4nc[nH]c4CCN3C(=O)c3oc(C(C)(C)O)nc3C(F)F)oc12 [Example 655, (S)-(4-(difluoromethyl)-2-(2-hydroxypropan-2-yl)oxazol-5-yl)(4-(5-fluoro-7-methylbenzo[d]oxazol-2-yl)-6,7-dihydro-1H-imidazo[4,5-c]pyridin-5(4H)-yl)methanone]",≤ 500
13,"Cc1cc(F)cc2nc([C@H]3c4nc[nH]c4CCN3C(=O)c3oc(C(C)(C)O)nc3C(F)F)oc12 [Example 656, (R)-(4-(difluoromethyl)-2-(2-hydroxypropan-2-yl)oxazol-5-yl)(4-(5-fluoro-7-methylbenzo[d]oxazol-2-yl)-6,7-dihydro-1H-imidazo[4,5-c]pyridin-5(4H)-yl)methanone]",1000 to 5000
